Like-named read-outs stand apart in the source and are kept apart here.
Assay: Evaluation of solubilities of photoinitiators in cationic active diluents
Assay type: physicochemical
Conditions: for Solubility in DOX: diluent DOX: 3,3′-[oxybismethylene]bis[3-ethyl] oxetane; for Solubility in DVE-3: diluent DVE-3: triethyleneglycol divinyl ether; for Solubility in Epoxy resin 6110: diluent Epoxy resin 6110: 3.4-epoxycyclohexylmethyl-3,4-epoxycyclohexyl carboxylate
[1] = diluent POX: 3-ethyl-3-(phenoxymethyl) oxetane

Compound	Solubility in DOX [%]	Solubility in DVE-3 [%]	Solubility in Epoxy resin 6110 [%]	Solubility in POX [1] [%]	Solubility in POX [%]
COC(=O)C(=O)c1ccc(Sc2ccc([S+](c3ccc(Sc4ccc(C(=O)C(=O)OC)cc4)cc3)c3ccc(Sc4ccc(C(=O)C(=O)OC)cc4)cc3)cc2)cc1 [Compound 1]	>10	>10	>10	>10	
CCOC(=O)C(=O)c1ccc(Oc2ccc([S+](c3ccccc3)c3ccccc3)cc2)cc1 [Compound 2]	>10	>10	>10	>10	
CCOC(=O)C(=O)c1ccc(Oc2ccc([S+](c3ccc(C)cc3)c3ccc(C)cc3)cc2)cc1 [Compound 7]	>10	>10	>10	>10	
[F][Sb-]([F])([F])([F])([F])[F].[F][Sb-]([F])([F])([F])([F])[F].c1ccc([S+](c2ccccc2)c2ccc(Sc3ccc([S+](c4ccccc4)c4ccccc4)cc3)cc2)cc1 [UVI6976, bis(4,4′-thioethertriphenylsulfonium) hexafluoroantimonate, reference compound]	<2	<2	<2		<2
phenylthiophenyl diphenylsulfonium hexafluoroantimonate [UVI6992, reference compound]	<2	<2	<2	<2	

Reference: patent publication US11535590B2, “Sulfonium salt photoinitiator, preparation method therefor, photocurable composition comprising sulfonium salt photoinitiator, and use thereof” (CHANGZHOU TRONLY NEW ELECTRONIC MATERIALS CO., LTD., priority 2017, dated 2022)
